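1) Cells in 96-well plates. 2) Compound, 48 h, 5 concentrations. 3) Linear interpolation between surrounding doses. 4) Unreached endpoint = highest concentration. GI50 marks 50% less growth. TGI: concentration producing complete growth inhibition.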
Legend:
Test in all cases: growth of human tumour cells (NCI), 48 h
T-47D breast = test system: T-47D breast
SF-295 CNS = test system: SF-295 CNS
NCI/ADR-RES ovarian = test system: NCI/ADR-RES ovarian
IGROV1 ovarian = test system: IGROV1 ovarian
MDA-MB-435 = test system: MDA-MB-435
NCI-H226 lung = test system: NCI-H226 lung
NCI-H460 lung = test system: NCI-H460 lung
SK-MEL-2 melanoma = test system: SK-MEL-2 melanoma

SMILES	GI50 (T-47D breast) [µM]	TGI (T-47D breast) [µM]	GI50 (SF-295 CNS) [µM]	TGI (SF-295 CNS) [µM]	GI50 (NCI/ADR-RES ovarian) [µM]	TGI (NCI/ADR-RES ovarian) [µM]	GI50 (IGROV1 ovarian) [µM]	TGI (IGROV1 ovarian) [µM]	GI50 (MDA-MB-435) [µM]	TGI (MDA-MB-435) [µM]	GI50 (NCI-H226 lung) [µM]	TGI (NCI-H226 lung) [µM]	GI50 (NCI-H460 lung) [µM]	TGI (NCI-H460 lung) [µM]	GI50 (SK-MEL-2 melanoma) [µM]	TGI (SK-MEL-2 melanoma) [µM]
N/C(=N\N=C\c1ccc(-c2ccccc2)cc1)N[N+](=O)[O-]	4.8	> 100	2.61	> 100	1.46	> 86.1	28	> 100	0.226	0.599	> 28.1	> 100	2.98	> 100	4.82	> 100
O=C(N/N=C/c1ccc2c(c1)CCC2)c1ccccc1O	–	> 100	–	36.6	–	73.8	–	55.9	–	51.9	–	77.7	–	63.2	–	60
COc1cccc(C=Nc2cc(C)ccn2)c1O.COc1cccc(C=Nc2cc(C)ccn2)c1O.[Cu]	12	33.1	18	46.1	19.1	68.3	21.4	48.8	13.6	45.9	9.25	27.2	18.3	44	21.1	53.2
Nc1ncnc2[nH]ncc12	0.265	4.52	0.401	6.37	0.388	12.2	0.744	4.62	0.58	> 56	4.04	> 100	2.1	> 100	0.369	2.91
COc1ccc2cc(-c3ccoc(=O)c3-c3cc(OC)c(OC)c(OC)c3)ccc2c1	0.0772	> 100	0.045	–	0.0528	> 100	0.0339	> 20.6	–	–	6.69	> 100	0.0526	> 32	0.0752	> 100
COC(=O)C(Cc1ccccc1)NC(=O)NC(=O)NC(=O)CI (stereo not drawn)	2.71	8.5	16.4	31.2	19.8	84.3	3.05	10.1	3.38	13.8	11.1	39.3	22.6	50.1	16.4	30.7
CCN1CCC(CCOC)(CN2c3ccccc3Sc3ccc(Cl)cc32)C1 (stereo not drawn)	2.05	4.6	1.73	3.39	1.73	3.89	1.97	3.99	1.74	3.35	1.92	4.67	1.9	3.58	2.54	4.74
COc1cc(C(=O)C/C(CCC(=O)Nc2ccccc2[N+](=O)[O-])=N\NC(=O)CC#N)ccc1O	–	–	–	> 100	–	–	–	> 100	–	–	–	> 100	–	> 100	–	> 100
COc1cc2c(cc1OCCCCOc1cc3c(cc1OC)C(=O)N1CCC[C@H]1CN3)N=C[C@@H]1CCCN1C2=O	0.512	> 100	–	1.2	45	> 100	2.42	> 27	0.464	10.4	1.94	4.49	2.92	> 100	0.826	> 100
CN(C)c1ccc2c(c1)Sc1cc(N(C)C)ccc1N2C(=O)c1ccccc1	35.2	> 100	10.1	> 100	33.7	> 100	14.1	77.6	65	> 100	71.6	> 100	20.5	> 100	–	–
CN(C)c1ccc(/C=C\c2cccc[n+]2C)cc1	4.37	65.5	4.33	> 100	> 100	> 100	8.66	> 100	4.16	> 100	12.2	> 100	15.2	> 100	20.4	> 100
O=C(O)C/C=C/CC(=O)O	–	> 100	–	> 100	–	> 100	–	> 100	–	> 100	–	> 100	–	> 100	–	> 100
C=CC(=O)N(C)[C@H]1C[C@H]2OC(C)(C1OC)n1c3ccccc3c3c4c(c5c6ccccc6n2c5c31)C(=O)NC4 (stereo partly drawn)	0.0774	–	0.0815	0.827	0.182	3.59	–	–	0.364	3.9	0.0963	0.92	0.0876	1.01	0.193	1.49
O=[N+]([O-])c1cccc(-c2nc3sccn3c2-c2ccnc(NCCCNS(=O)(=O)c3cccc(F)c3)n2)c1	0.391	4.64	2.52	7.79	1.72	6.49	2.71	11.6	2.98	11.6	1.66	8.22	3.34	> 100	2.04	5.98
Cc1cc(N/N=C/c2nc(-c3ccc(Br)cc3)oc2C)c2cc(Cl)ccc2n1	> 100	> 100	> 100	> 100	> 100	> 100	> 100	> 100	> 100	> 100	> 100	> 100	> 100	> 100	> 100	> 100
Cc1ccc(-c2cc(-c3ccc(C)cc3)nc(NCCNc3ccnc4cc(Cl)ccc34)n2)cc1	1.74	3.6	1.8	3.49	–	–	1.52	3.16	1.77	3.35	1.8	4.18	1.91	3.7	1.9	3.63

Reference: PubChem BioAssay (NCI)
